Results as given in patent publication US20020120147A1, “Micronized torsemide” (priority 2000, published 2002).

How the values were obtained:
[1] = background statement; cited from earlier work
[2] = particle size after micronization in a micronizer; type: physicochemical; details: pure dry torsemide micronized in a micronizer (Example 1)
Excerpt: Pure dry torsemide was micronized in a micronizer. The result was micronized torsemide of a particle size of less than 5 micrometer.

Cc1cccc(Nc2ccncc2S(=O)(=O)NC(=O)NC(C)C)c1 [Torsemide, 1-Isopropyl-3-[(4-m-toluidino-3-pyridyl)sulfonyl] urea]
solubility in water [1]: essentially insoluble

Cc1cccc(Nc2ccncc2S(=O)(=O)NC(=O)NC(C)C)c1 [micronized torsemide, 1-Isopropyl-3-[(4-m-toluidino-3-pyridyl)sulfonyl] urea]
particle size [2]: less than 5 micrometer
